From patent US20260183396A1, “CXCR3 OVEREXPRESSION IN CAR-NK CELLS PRIMES MIGRATION/HOMING INTO THE TUMOR MICROENVIRONMENT” (DANA-FARBER CANCER INSTITUTE, INC., priority 2022, published 2026)

Experiments:
Format in all cases: cell-based, human
CXCL10 = CXCL10 release from MPM PDOTS/explants; settings: MPM PDOTS, specific samples
Experimental: Patient-derived organotypic tumor spheroids (PDOTS). PDOTS were generated as previously described (Jenkins et al., Cancer Discov. 8:196-215 (2018); Aref et al., Lab Chip 18:3129-3143 (2018)). Briefly, fresh tumor specimens were minced in a 15 mL falcon tube in prewarmed to 37° C. full media (DMEM from Thermo Fisher Scientific+10% FBS)+100 U/mL collagenase type IV (Life Technologies) and 50 μg/mL dNase I (Roche) for approximately 20 minutes using sterile scissors and pipetting. Dissociated material was strained over 100-μm filter and 40-μm filters to generate S1 (>100 μm), S2 (40-100 μm), and S3 (<40 μm) spheroid fractions, which were subsequently maintained in ultralow-attachment (ULA) tissue culture plates (Corning). […] S2 fractions were used for ex vivo culture by resuspending them in type I rat tail collagen (Corning) at a concentration of 2.8 mg/mL prior to loading into the center gel region of the 3-D microfluidic culture device (AIM Biotech) and incubation for 40 minutes at 37° C. in humidity chambers to allow for polymerization. Collagen hydrogels containing PDOTS were hydrated with media with or without indicated treatments. TAK-676 was provided by Takeda and diluted in dH20. Recombinant human interferon beta (100 ng/ml; R&D Systems) was used as a positive control downstream of STING for STAT1 pathway activation. […]

H2591 MPM cells = experiment: NK cell migration assay towards H2591 spheroids
Experimental: NK cell infiltration assay. Immune cell infiltration was assessed as previously described (Kitajima et al., Cancer Discov. 9:34-45 (2019); Mahadevan et al., Cancer Discov. 11:1952-1969 (2021)). Briefly, mesothelioma cancer cell spheroids (H2591, H2461, H226) were generated by seeding 5×10^5 cells in suspension in a ULA dish for 24 hours. […] Samples were then pelleted and resuspended in type I rat tail collagen (Corning) at a concentration of 2.5 mg/mL following the addition of 10×PBS with phenol red and pH adjustment using NaOH. pH 7.0-7.5 was confirmed using PANPEHA Whatman paper (Sigma-Aldrich). Cells and collagen were kept on ice to prevent polymerization. […]
For quantification, images were captured on a Nikon Eclipse 80i fluorescence microscope equipped with Z-stack (Prior) and CoolSNAP CCD camera (Roper Scientific). […] Quantification of immune cell infiltration into the 3D tumor microenvironment was performed by measuring the total cell area of cell tracker dye in the entire gel region. For the experiment with the CXCR3 neutralizing antibody (R&D MAB160; FIG. 6B), staining was quantified in a square region in the center of the channel to focus on effects of CXCR3 ligands released by tumor cells. Percent dead cell quantification was performed as in PDOTS as described above. […]

granzyme B = experiment: Granzyme B ELISA, NK / MPM co-culture; settings: only in co-culture with MPM cells expressing STING
Experimental: Cytokine analysis. CXCL10 ELISA (R&D Systems DIP100) and granzyme B ELISA (R&D systems DY008) were performed according to manufacturer's instructions on conditioned media collected from cell culture. Cytokine analysis of conditioned media after 3 days of explant (S1) culture (FIG. 9B) utilized the MSD U-PLEX Viral Combo 1 assay (Hu: K15343K-2), which was performed according to manufacturer's instructions.

Structure (SMILES): Nc1ncnc2c1ncn2[C@@H]1O[C@@H]2COP(=O)([S-])O[C@@H]3[C@H](O)[C@@H](COP([O-])(=S)O[C@H]2[C@H]1O)O[C@H]3n1cnc2c(N)ncnc21.[Na+].[Na+] (stereo partly shown) [ADU-S100]
- CXCL10 release (CXCL10): induced CXCL10 release
- migration of cNK cells (H2591 MPM cells): increased migration
- migration of cNK overexpressing CXCR3 (H2591 MPM cells): decreased migration
- granzyme release by NK cells (granzyme B): enhanced
